Results reported in US6635662B2, “Radicicol derivatives” (Kyowa Hakko Kogyo Co., Ltd., priority 1996, dated 2003).

How the values were obtained:
Raf-1 protein = experiment: Effect of decreasing intracellular Raf-1 protein quantity in KNRK 5.2 cells; assay type: cell-based, rat; conditions: 40 hours, Raf-1 protein/total Erk2 protein ratio halved, read-out: Raf-1 protein quantity decrease: IC50
Description: (§1) Activated K-Ras gene-introduced rat kidney epithelial cell line KNRK 5.2 was cultured at 37° C. for 40 hours in an atmosphere of 5% carbon dioxide gas using Dulbecco's modified Eagle's medium (DMEM) which was supplemented with 10% fetal calf serum (FCS) and to which was added each radicicol derivative at respective test concentration. The resulting cells were lysed for 30 minutes at 4° C. in a cooled buffer for lysis use [50 mM HEPES NaOH, pH 7.4, 250 mM sodium chloride (NaCl), 1 mM ethylenediaminetetraacetic acid (EDTA), 1% Nonidet P-40 (NP40), 1 mM dithiothreitol (DTT), 1 mM phenylmethylsulfonyl fluoride (PMSF), 5 μg/ml leupeptin, 2 mM sodium orthovanadate (Na3VO4), 1 mM sodium fluoride (NaF), 10 mM β-glycerophosphate] and then centrifuged at 30,000 G for 10 minutes. The protein content of the thus prepared supernatant fluids was measured to prepare samples having the same protein quantity for each lane, and then separation of proteins was carried out by SDS-PAGE. The thus separated protein samples were transferred on a polyvinylidene difluoride (PVDF) membrane, and then anti-phosphorylation MAPK antibody (anti-phospho MAPK, manufactured by New England Biolabs), anti-Erk2 antibody (anti-Erk2, manufactured by Upstate Biotechnology) and anti-Raf-1 antibody (anti-Raf-1 (C-12), manufactured by Santa Cruz Biotechnology) were added thereto as primary antibodies and allowed to react with the proteins on the membrane. Thereafter, a horseradish peroxidase-labeled secondary antibody (anti-rabbit Ig antibody or anti-mouse Ig antibody, manufactured by Amersham) capable of reacting with respective primary antibodies was added thereto as the secondary antibody to carry out the reaction. Detection was carried out using ECL reagent (manufactured by Amersham), and the amount of phosphorylated Erk2 protein, total Erk2 protein and Raf-1 protein was determined by carrying out density scanning of the bands generated on the X-ray film. The Erk2 phosphorylation inhibition activity of radicicol derivatives is determined by calculating the ratio of phosphorylated Erk2 protein (phosphorylated Erk2 protein/total Erk2 protein) based on the results prepared from the samples of respective drug concentrations, which is expressed as the concentration of each derivative (IC50) by which the ratio becomes half in comparison with the case in which the drug is not added.

Erk2 phosphorylation = Erk2 phosphorylation inhibition activity in KNRK 5.2 cells; assay type: cell-based; conditions: Rattus norvegicus, 40 hours, phosphorylated Erk2/total Erk2 ratio halved
Description: as §1

[1] = test system: v-src oncogene transformed cell line SR-3Y1; experiment: Growth inhibition test (MTT) on SR-3Y1; assay type: cell-based; conditions: Rattus norvegicus, SR3Y1, SR-3Y1 cells, 72 hours
Description: (§2) The cells were inoculated into a 96 well microplate (# 167008, manufactured by Nunc) in an amount of 1,000 cells per well and pre-cultured at 37° C. for 24 hours in a 5% carbon dioxide gas incubator using Dulbacco's modified Eagle's medium (DMEM) which had been supplemented with 10% fetal calf serum (FCS). Next, a DMSO solution of each test compound which had been adjusted to 10 mM was serially diluted with the culturing medium and add to the wells in 50 μl portions. Thereafter, the culturing was continued at 37° C. for 72 hours in the 5% carbon dioxide gas incubator. Five hours before completion of the culturing, 3-(4,5-dimethylthiazo-2-yl)-2,5-diphenyltetrazolium bromide (manufactured by Sigma, hereinafter referred to as “MTT”) which had been dissolved in the culturing medium to a final concentration of […] was dispensed into the wells in 50 μl portions. After completion of the culturing, DMSO was dispensed into the wells in […] portions, and the plate was vigorously stirred using a plate mixer to dissolve MTT-formazan crystals completely. Thereafter, absorbance at 550 nm was measured using a microplate reader MTP-32 (manufactured by Corona Denki). The cell growth inhibition activity was expressed by 50% inhibition concentration (IC50).

[2] = test system: rat normal fibroblast cell line 3Y1-B; experiment: Growth inhibition test (MTT) on 3Y1-B; assay type: cell-based; conditions: 3Y1-B cells, 72 hours
Description: as §2

[3] = test system: human breast cancer MX-1 solid tumor; experiment: Antitumor test on nude mouse-transplanted human breast cancer MX-1 solid tumor; assay type: in vivo; conditions: tumor volume ratio, 100 mg/kg per day i.v. once a day for 5 days, measured day 12 after administration
Description: From a tumor lump of a human breast cancer cell line MX-1 subcultured in nude mice (BALB/c nu/nu mice: CLEA Japan), a portion showing good growth was selected and cut into a 2 mm square fragment which was then transplanted under the abdominal side skin of each male nude mouse of 7 to 9 weeks of age using a trocar. The tumor size was measured on the 13th day after the tumor transplantation to select properly growing tumors having a tumor volume of 100 to 300 mm^3 (calculated by a calculation formula of “major axis×minor axis^2×½”), the mice were optionally grouped into 5 animals per group, and then each test compound which had been dissolved in a 7.5% cremohor EL (manufactured by Sigma)/5% dimethylacetamide (DMA)/87.5% physiological saline solution was administered to the mice by intravenous injection at a dosage of 0.05 ml (100 mg/kg) per day, once a day for 5 days. The antitumor activity of each test compound was expressed by a ratio (T/C) of the tumor volume (T) in the test drug-administered group to the tumor volume (C) in the control group on the 12th or 14th day after administration of the test compound.

[4] = test system: intracellular tyrosine kinase; experiment: Inhibition test of intracellular tyrosine kinase (tyrosine-phosphorylated protein, Western blot); assay type: cell-based; conditions: Rattus norvegicus, SR3Y1; SR-3Y1 cells, 15 hours culture, tyrosine-phosphorylated protein reduced to half vs control; read-out: Inhibitory activity of intracellular tyrosine kinase IC50
Description: SR-3Y1 cells were cultured at 37° C. for 15 hours in an atmosphere of 5% carbon dioxide, using Dulbecco's modified Eagle's medium (DMEM) containing 10% fetal calf serum (FCS), to which each radicicol derivative to be tested had been added in varied concentration. The thus cultured cells were lysed at 4° C. for 20 minutes in a cooled buffer for lysis use (50 mM Tris HCl, pH 7.5, 150 mM sodium chloride (NaCl), 1% Triton X-100, 0.1% sodium dodecyl sulfate (SDS), 1% sodium deoxycholate, 2 mM ethylenediaminetetraacetic acid (EDTA), 1 mM phenylmethanesulfonyl fluoride (PMSF), 20 μM leupeptin, 0.15 unit/ml aprotinin, 1 mM sodium orthovanadate (Na3VO4) and then centrifuged at 20,000 G for 30 minutes. After measuring protein concentration in the resulting supernatant fluid, samples were adjusted to the same protein quantity per lane to carry out separation of protein by SDS-PAGE. […] Detection was carried out using ECL reagent (Amersham Co.), and the amount of tyrosine-phosphorylated protein was determined by scanning the density of bands prepared on an X-ray film. […]

Compound | IC50 (Raf-1 protein) [nM] | IC50 (Erk2 phosphorylation) [nM] | IC50 [1] [nM] | IC50 [2] [nM] | T/C (%) [3] [%] | IC50 [4] [nM]
CC1CC2OC2C=CC=CC(=NOCc2ccccc2S(=O)(=O)N(C)C)Cc2c(Cl)c(O)cc(O)c2C(=O)O1 (stereo not shown) [Compound 50] | 340 | 350 | 21 | 120 | – | –
CC1CC2OC2C=CC=CC(=NOCc2cccnc2)Cc2c(Cl)c(O)cc(O)c2C(=O)O1 (stereo not shown) [Compound 53] | 380 | 70 | < 4 | 8 | 46 | –
CC1CC2OC2C=CC=CC(=NOCCCCN2CCOCC2)Cc2c(Cl)c(O)cc(O)c2C(=O)O1 (stereo not shown) [Compound 64] | 190 | 110 | – | – | – | –
CC1CC2OC2C=CC=CC(=NOCCN2CCCC2=O)Cc2c(Cl)c(O)cc(O)c2C(=O)O1 (stereo not shown) [Compound 69] | 120 | 60 | 4 | 8 | 4 | –
CCOC(=O)ON=C1/C=C/C=C\C2OC2CC(C)OC(=O)c2c(O)cc(O)c(Cl)c2C1 (stereo not shown) [Compound 73] | – | – | – | – | – | 130
CNC(=O)ON=C1/C=C/C=C\C2OC2CC(C)OC(=O)c2c(O)cc(O)c(Cl)c2C1 (stereo not shown) [Compound 74] | – | – | 27 | 72 | – | –
C[C@@H]1C[C@H]2O[C@@H]2/C=C\C=C\C(=O)Cc2c(Cl)c(O)cc(O)c2C(=O)O1 [Radicicol, radicicol] | – | – | 42 | 780 | – | 370
